Source: patent US9029337B2, “Modulation of factor 7 expression” (Isis Pharmaceuticals, Inc., priority 2007, dated 2015)
Strand notation (5' to 3'): a small letter for the sugar, then the base; units joined by * are phosphorothioate-linked, units joined directly phosphodiester-linked; [ ] holds rarer units or linkages, { } end groups; capitals alone tell only the bases. e = 2'-O-(2-methoxyethyl) (MOE); [5mC] = 5-methylcytosine; d = 2'-deoxy (DNA)

Tested on: human Factor 7 mRNA
Assay: Antisense inhibition of human Factor 7 mRNA in HepB3 cells, 50 nM antisense oligonucleotide, lipofectin
Assay type: cell-based
Conditions: lipofectin, approximately 24 hours
In short: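 Cells plated at 4,000 per well were transfected and harvested after approximately 24 hours of treatment. Transcript levels, measured with primer probe set RTS 2927, were normalised to total RNA by RIBOGREEN®. Values are percent inhibition relative to untreated control cells.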

[1] = Table 1, 50 nM, relative to untreated control cells
[2] = 50 nM antisense oligonucleotide, Factor 7 mRNA by real-time RT-PCR (RTS 2927), relative to untreated control

Substance	% Inhibition [1] [%]	% Inhibition [2] [%]
407932 (antisense eG*eA*eA*e[5mC]*e[5mC]*dA*dG*dA*dA*dA*dA*dG*dT*dG*dA*eG*eA*eG*e[5mC]*eT) [compound 407932]	55	
407933 (antisense eT*eG*eA*eT*eA*dA*dT*dG*dG*dA*dT*dA*dA*dG*dA*eA*e[5mC]*e[5mC]*eA*eG) [compound 407933]	58	
407934 (antisense e[5mC]*eT*eG*eA*eA*dG*dT*dG*dA*dA*dG*dA*dT*dG*dA*eT*eA*eA*eT*eG) [compound 407934]	45	
407937 (antisense eG*eA*eA*eG*eG*dG*dA*dG*dA*dA*dA*dT*dA*d[5mC]*dA*eT*eT*eT*eG*eG) [compound 407937]	59	
407938 (antisense e[5mC]*eA*e[5mC]*e[5mC]*e[5mC]*dA*dG*d[5mC]*dG*dA*dA*dG*dG*dG*dA*eG*eA*eA*eA*eT) [compound 407938]	60	
407940 (antisense eT*eG*eT*eG*eA*dA*dG*d[5mC]*dT*dG*dG*dG*dA*dA*dG*e[5mC]*eA*eG*eG*eT) [compound 407940]	62	
407941 (antisense eG*eA*eG*eA*e[5mC]*dG*d[5mC]*dA*dG*d[5mC]*d[5mC]*dG*dT*dT*dT*eA*eT*eT*eG*eT) [compound 407941]	65	
407942 (antisense e[5mC]*eA*e[5mC]*eA*eG*dG*dT*dG*dT*dG*d[5mC]*dG*dG*dA*dG*eG*eA*eG*eA*e[5mC]) [compound 407942]	41	
407943 (antisense eG*e[5mC]*eA*eG*eG*d[5mC]*dA*d[5mC]*d[5mC]*dA*d[5mC]*dA*dG*dG*dT*eG*eT*eG*e[5mC]*eG) [compound 407943]	34	
407944 (antisense e[5mC]*e[5mC]*eA*eG*eT*dG*dG*dG*dT*dG*dG*d[5mC]*dA*dG*dG*e[5mC]*eA*e[5mC]*e[5mC]*eA) [compound 407944]	59	
407945 (antisense eA*eA*eT*e[5mC]*eA*dT*dG*dG*dG*d[5mC]*dA*dA*d[5mC]*d[5mC]*d[5mC]*eA*eG*eT*eG*eG) [compound 407945]	56	
407946 (antisense eT*e[5mC]*e[5mC]*eA*eA*dA*dA*dA*dT*dG*dA*dA*dT*d[5mC]*dA*eT*eG*eG*eG*e[5mC]) [compound 407946]	5	
407950 (antisense eA*eG*e[5mC]*eT*eT*d[5mC]*d[5mC]*dA*dT*dG*dT*dG*dA*dG*dG*eG*eT*eT*e[5mC]*eA) [compound 407950]	58	
407951 (antisense eA*eA*e[5mC]*eA*eG*d[5mC]*dT*dT*dT*dT*dG*dT*dT*dT*dT*eT*eA*eA*eA*eA) [compound 407951]	0	
407952 (antisense eG*eG*eA*eT*e[5mC]*d[5mC]*dT*dG*dG*dG*dA*dG*d[5mC]*dT*dA*e[5mC]*eA*eG*e[5mC]*e[5mC]) [compound 407952]	41	
407953 (antisense eA*e[5mC]*eA*eT*e[5mC]*d[5mC]*dA*dA*dT*dT*d[5mC]*d[5mC]*dA*d[5mC]*dA*eG*eG*eA*eT*e[5mC]) [compound 407953]	20	
407954 (antisense e[5mC]*eA*eG*eG*eG*dA*dG*dA*dG*dA*dA*d[5mC]*dA*dT*d[5mC]*e[5mC]*eA*eA*eT*eT) [compound 407954]	39	
407955 (antisense eT*eG*eT*eG*eA*dA*dA*dT*dA*dT*d[5mC]*dA*dT*dT*dG*eA*e[5mC]*eA*eA*eG) [compound 407955]	3	

Substance	% Inhibition [1] [%]	% Inhibition [2] [%]
407956 (antisense eA*eA*e[5mC]*eT*eT*dG*d[5mC]*dA*dT*dT*dT*dA*dG*dT*dG*eA*eT*eG*e[5mC]*eG) [compound 407956]	19	
407957 (antisense eG*eG*e[5mC]*e[5mC]*eT*dG*dG*dG*dA*dA*d[5mC]*dT*dT*dG*d[5mC]*eA*eT*eT*eT*eA) [compound 407957]	52	
407958 (antisense eG*e[5mC]*e[5mC]*eG*eT*dG*d[5mC]*dT*dT*dG*d[5mC]*d[5mC]*dG*dG*dA*eG*eT*e[5mC]*eT*eG) [compound 407958]	58	
407959 (antisense eG*e[5mC]*eA*eG*eG*dG*dA*dT*dG*dG*d[5mC]*dA*dT*d[5mC]*dG*eA*eG*eT*e[5mC]*e[5mC]) [compound 407959]	0	
407960 (antisense eG*eT*eG*e[5mC]*e[5mC]*d[5mC]*dA*dG*dG*dA*d[5mC]*dG*dG*d[5mC]*d[5mC]*e[5mC]*eT*eG*e[5mC]*eA) [compound 407960]	53	
407961 (antisense eA*eA*eG*eT*eA*dG*dA*dT*dG*dA*dT*dG*d[5mC]*d[5mC]*dT*eG*eA*eG*eT*eG) [compound 407961]	34	
407962 (antisense eT*eT*eG*eG*eA*dA*dG*d[5mC]*dA*dG*d[5mC]*d[5mC]*d[5mC]*dA*d[5mC]*eG*eG*e[5mC]*eT*eG) [compound 407962]	41	
407963 (antisense eA*eG*eA*eG*e[5mC]*dA*dG*dG*dG*dT*dG*d[5mC]*d[5mC]*dT*dT*eG*eG*eA*eA*eG) [compound 407963]	33	
416422 (antisense eA*eG*e[5mC]*eG*eA*d[5mC]*d[5mC]*d[5mC]*d[5mC]*dG*d[5mC]*d[5mC]*dT*dG*d[5mC]*eA*eG*e[5mC]*e[5mC]*eA) [compound 416422]		8
416423 (antisense eG*eT*eG*eT*eT*dT*d[5mC]*dT*d[5mC]*d[5mC]*dT*d[5mC]*d[5mC]*dT*dG*eA*eG*eG*e[5mC]*e[5mC]) [compound 416423]		51
416424 (antisense eG*eA*eG*eA*e[5mC]*d[5mC]*dA*dT*dG*dA*dT*dG*dA*dA*dA*eT*e[5mC]*eT*e[5mC]*eT) [compound 416424]		27
416425 (antisense eA*eA*eG*e[5mC]*eA*dG*dA*dA*dG*dG*d[5mC]*dA*dG*dA*dG*eG*eA*eG*e[5mC]*e[5mC]) [compound 416425]		13
416426 (antisense eA*eG*e[5mC]*e[5mC]*e[5mC]*dA*dA*dG*d[5mC]*dA*dG*dA*dA*dG*dG*e[5mC]*eA*eG*eA*eG) [compound 416426]		34
416427 (antisense e[5mC]*e[5mC]*e[5mC]*eT*eG*dA*dA*dG*d[5mC]*d[5mC]*d[5mC]*dA*dA*dG*d[5mC]*eA*eG*eA*eA*eG) [compound 416427]		5
416428 (antisense e[5mC]*eT*eG*eG*eG*dT*dT*dA*d[5mC]*dG*dA*dA*dG*dA*d[5mC]*eT*eG*e[5mC]*eA*eG) [compound 416428]		11
416429 (antisense eA*e[5mC]*eG*e[5mC]*e[5mC]*dG*dT*dG*dG*dG*d[5mC]*dT*dT*d[5mC]*d[5mC]*eT*e[5mC]*e[5mC]*eT*eG) [compound 416429]		47
416430 (antisense eG*e[5mC]*eA*eG*e[5mC]*dT*d[5mC]*d[5mC]*dT*d[5mC]*d[5mC]*dA*dG*dG*dA*eA*e[5mC]*eG*e[5mC]*eG) [compound 416430]		52
416431 (antisense eA*eG*eG*eG*eA*dG*d[5mC]*d[5mC]*d[5mC]*dG*dG*d[5mC]*d[5mC]*dG*d[5mC]*eA*eG*e[5mC]*eT*e[5mC]) [compound 416431]		25
